Test results from patent US9012397B2 (priority 2011, dated 2015).

System: unidentified sting
Set-up: species or system human
Settings: in vivo

In the case of pGLU-ASN-TRP-LYS-C8 [ZEP3], the clinical outcome is reported as “relief from the itching sensation within a number of minutes” and the “time until redness disappeared” value is reported as 2 days.
